# Assay results published in publication PMC12405493, “Selective ubiquitination of drug-like small molecules by the ubiquitin ligase HUWE1” (Nature Communications, 2025).
# Columns and labels:
# HUWE1^HECT = biological target: T1, HUWE1^HECT (Homo sapiens, UniProt Q7Z6Z7); assay: Isothermal titration calorimetry (ITC) with HUWE1^HECT; assay type: binding; settings: 25 °C
# T1 construct: the isolated HECT domain of HUWE1 (HUWE1^HECT); made in house
# T1 sequence (Q7Z6Z7 4038-4374 limits assumed): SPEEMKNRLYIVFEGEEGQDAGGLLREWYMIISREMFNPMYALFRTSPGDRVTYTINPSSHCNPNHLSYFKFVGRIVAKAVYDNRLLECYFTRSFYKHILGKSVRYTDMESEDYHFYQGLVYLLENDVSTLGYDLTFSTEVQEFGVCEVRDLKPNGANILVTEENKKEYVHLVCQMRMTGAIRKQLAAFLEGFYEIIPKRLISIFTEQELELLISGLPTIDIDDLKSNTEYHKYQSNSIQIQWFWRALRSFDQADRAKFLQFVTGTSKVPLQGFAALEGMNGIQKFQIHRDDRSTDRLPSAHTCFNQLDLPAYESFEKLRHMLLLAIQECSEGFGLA
# Protocol: (§1) ITC was performed with an ITC200 calorimeter (MicroCal) at 25 °C. The proteins were dialyzed into 20 mM HEPES (pH 7.5), 150 mM NaCl, and 1 mM β-mercaptoethanol (β-ME) overnight. 600 μM HUWE1^HECT or HUWE1^HECT-Ub were applied to the cell and a 10-fold molar excess of BI8626 to the syringe (and vice versa). The reference cell was filled with buffer. Titration experiments included 1 injection of 1.5 μL, followed by 15 injections of 2.4 μL in 3-s intervals, with 150-s spacings between individual injections. The reference power was set to 12 μcal s^−1 and the stirring speed to 270 rpm. To control for instrument functionality, 5 mM CaCl2 were titrated into 0.4 mM EDTA in 10 mM MES (pH 5.6). Data were plotted with OriginPro v.2020b (OriginLab).
# [1] = biological target: T2, vinylthioether-linked HUWE1^HECT-Ub complex (Homo sapiens, UniProt Q7Z6Z7); assay: Isothermal titration calorimetry (ITC) with HUWE1^HECT~Ub proxy; assay type: binding; settings: 25 °C
# T2 construct: The preparation of the vinylthioether-linked HUWE1^HECT-Ub complex was also previously described; made in house; host or cells: bacteria (components)
# Protocol: as §1
# HEK293T cells = assay: LC/MS/MS detection of ubiquitinated compound from cell lysates (Ub pull-down); assay type: cell-based, human; settings: 15 μM, 1 h
# Protocol: Samples for LC/MS/MS analyses of the ubiquitinated inhibitors from reconstituted HUWE1^FL-driven reactions were prepared by in-solution trypsin (Mass Spec Grade, Promega) digestion, instead of the gel-based LysC digestion procedure described above. […] In both cases, the samples were reduced and alkylated with 10 mM TCEP and 20 mM iodoacetamide at 37 °C in the dark for 60 min. An equal mixture of Sera-Mag SpeedBeads with hydrophilic and hydrophobic surfaces (GE Healthcare; 1:1 mix (v/v)) was washed twice with water and added to the sample at 50:1(w/w) resin-to-protein ratio. […] The resulting peptides were then dried, dissolved in 5% ACN/0.1% FA (both v/v), and measured on a hybrid quadruple-Obitrap Exploris480 mass spectrometer (Thermo Fisher Scientific) coupled to an Ultimate 3000 UHPLC system (Thermo Fisher Scientific). […]
# Sample preparation for LC/MS/MS detection of ubiquitinated compounds from cell lysates was performed according to the following workflow: HEK293T cells at 70% confluency were treated with 15 μM BI8626 or an equal volume of DMSO for 1 h. […] After 20 min incubation on a rotating wheel at 4 °C, the lysate was cleared by centrifugation, the total protein concentrations determined, and the sample (2.3 mg) diluted with 10 mM Tris (pH 7.5), 150 mM NaCl and 0.5 mM EDTA to a final volume of 1 mL. […]
structure (smiles),measurement,setting,value
NCc1cccc(CNc2ncnc3c(N4CCN(Cc5ccccc5)CC4)ncnc23)c1 [BI8626],Interaction with HUWE1^HECT by ITC,HUWE1^HECT,No binding was detected
same,Interaction with the HUWE1^HECT~Ub proxy by ITC,[1],No binding was detected
same,Compound ubiquitination in cells (targeted MS/MS after Ub pull-down),HEK293T cells,indeed ubiquitinated in cells
